Experimental data taken from EP1762248A1, “Use of cobalt porphyrins in joint therapy with an immunosuppressant drug for treatment of transplant patients or autoimmune disorders” (CORIT Consorzio per la Ricerca sul, priority 2005, dated 2007).
Where two headings read alike, the source gives them in different places.

Tests used:
PAEC cells = test: Proliferation of PAEC cells by CFSE labelling and cytofluorometric analysis; type: cell-based, Pig; settings: CoPP alone, various concentrations; versus untreated PAEC controls (figure 1)
Text: Two in vitro experimental models have been used.
CFSE is a non-fluorescent dye which diffuses passively into the cell cytoplasm. Once inside the cytoplasm, the dye is cleaved by intracellular esterases, thus becoming fluorescent. This binds strongly to cellular proteins and is retained during cellular development. At each cell division stage, CFSE is distributed evenly to daughter cells, with the result that each cellular generation will inherit half of the CFSE content. When analysed by cytofluorimetry, the sequential reduction of CFSE is visualised as distinct peaks corresponding to ever more decreasing fluorescence. PAEC proliferation has been evaluated as a proliferation index, calculated as the sum of the cells in all generations divided by the number of original parental cells (e.g. in the second generation, the parental cells would correspond to the total number of cells in the second generation divided by 2, in the third, divided by 4, because each will have given rise to 2^1, 2^2 cells and so on for each generation).

PBMCs [1] = test: Apoptosis analysis of simian PBMCs by PI staining (sub-diploid peak); type: cell-based, primate; settings: CoPP alone; concanavalin A, 96 hours
Protocol: The pellet from each sample has been resuspended in 600 µl of PBS and subsequently, 1.4 ml of absolute ethanol has been added dropwise while shaking continuously. The samples have been left at -20°C overnight. Following fixation, the cells have been washed twice in PBS. The pellet has been resuspended in 500 µl of PI at a concentration of 50 µg/ml, to which 6.25 µl of Nonidet P40 and 8 µl of RNase A (1 mg/ml) have been added. The samples have been shaken vigorously and incubated for at least half an hour in the dark at room temperature. Following incubation, the samples have been analysed using a cytofluorimeter, for cell cycle analysis.
(§1) By means of staining with the DNA intercalator, PI, it has been possible to evaluate the apoptotic cells as a sub-diploid peak and the cells in the DNA synthesis and duplication stage (S+G2 stage) as peaks with a DNA content greater than or equal to the diploid content. The proliferation index of PBMCs has been evaluated by staining the cells with CFSE at the same time as stimulation.
In order to study apoptosis, the percentage of cells in the sub-diploid stage has been quantified.

HO-1 = settings: paec, 72 h
Text: Equal amounts of protein of each sample have been loaded and separated by electrophoresis on a 12% polyacrylamide gel in the presence of SDS (SDS-PAGE) and then transferred onto a nitrocellulose membrane (Amersham-Pharmacia) by means of electroblotting. […] The specific band has been detected by adding a chemiluminescent substrate followed by exposure to photographic film (ECL-Amersham-Pharmacia). The relative amount of HO-1 protein, normalised to the actin content of each sample, has been determined with the use of a densitometer (Pharmacia).
Following stimulation, HO-1 expression has been assessed by Western Blotting and densitometric analysis of the bands obtained. HO-1 expression is reported as the ratio of the intensity of the bands with respect to the control (table 1). The amount of protein loaded is normalised for actin.

PBMCs [2] = test: Proliferation of concanavalin A activated simian PBMCs by CFSE labelling; type: cell-based, primate; settings: CoPP alone (CsA concentration 0), 96 hours (figure 2)
Text: as §1

cobalt (III) protoporphyrin [CoPP]
proliferation index of PAECs (PAEC cells): increases the proliferation index in a dose dependent manner | apoptosis (cells in the sub-diploid stage) (PBMCs [1]): up to 6% | HO-1 expression in PAECs as the ratio of band intensity with respect to the control and normalised for actin (R) (HO-1; 50 µM): 6.0 | HO-1 expression in PAECs as the ratio of band intensity with respect to the control and normalised for actin (R) (HO-1; 100 µM): 4.6 | concentration at which PBMC proliferation is inhibited (PBMCs [2]): > 25 µM
